Columns and labels:
[1] = system: HepG2 cells; assay: Testing of TC/TG in HepG2 cells incubated with FFA (oleic acid and palmitate); format: cell-based, human; settings: 24 h; for reduction of the increase in TG level of HepG2 cell induced by oleic acid and palmitate / reduction of the increase in TC level of HepG2 cell induced by oleic acid and palmitate: 20 μM compound, 0.5 mmol/L FFA; for reduction of the increase in TG level of HepG2 cell induced by oleic acid and palmitate: FIG. 1A; for reduction of the increase in TC level of HepG2 cell induced by oleic acid and palmitate: FIG. 1B
Method: Cell TC/TG was tested using Nanjing Jiancheng TG test kit and TC test kit. HepG2 cells were incubated with 0.5 mmol/L FFA (oleic acid and palmitate mixed at a ratio of 2:1) and a solvent or different concentrations (20 μM, 40 μM, 80 μM) of compounds for 24 h. The culture medium was discarded and the cells were washed once with 0.01 M PBS (pH 7.4). The cells were scraped off with a cell scraper. 2-5 mL of 0.01 M PBS (pH 7.4) was then added. The cell suspension was collected and then centrifuged at 1000×g, 4° C. for 10 min. According to the ratio of 10^6 cells/300-500 μL of homogenization medium, isopropyl alcohol was added for mechanical homogenization, such that the cells were thoroughly disrupted until there was no obvious cell precipitation. The cell solution was centrifuged at 10000×g, 4° C. for 10 min. The supernatant was taken and placed on ice for testing. 2.5 μL of distilled water, standard products or samples were well mixed with […] respectively. After incubation at 37° C. for 10 min, the absorbance value of each well was tested with a microplate reader at 510 nm. Calculation formula for TC/TG concentration: sample concentration (mmol/g protein)=(ODsample−ODblank)/(ODstandard−ODblank)×standard product concentration (mmol/L)/protein concentration (g protein/L).
Preparation of protein standard: a. 1.2 mL of standard protein solution was added to a tube of protein standard (30 mg BSA), and a 25 mg/mL standard protein solution was obtained after the protein standard was thoroughly dissolved. b. An appropriate amount of 25 mg/mL protein standard was diluted to the final concentration of 0.5 mg/mL. Preparation of BCA working solution: according to the number of samples, reagent A for the BCA working solution and reagent B for BCA working solution (v/v: 50:1) were well mixed to prepare an appropriate amount of BCA working solution. Determination of protein concentration: a. 0, 1, 2, 4, 8, 12, 16, and 20 μL of the protein standard were respectively added into the standard wells of the 96-well plate, and the diluted standard solution was then added to make up to 20 μL, which is equivalent to obtaining standard concentrations of 0, 0.025, 0.05, 0.1, 0.2, 0.3, 0.4, and 0.5 mg/mL, respectively. b. An appropriate volume of sample was added to the sample wells of the 96-well plate. If the sample is less than 20 μL, the diluted standard solution should be added to make up to 20 μL. c. […] was added to each well and the well plate was set still at 37° C. for 20-30 min. d. The absorbance at A562 nm was determined with a microplate reader. e. The protein concentrations of the samples were calculated according to the standard curves and the sample volumes used.

[2] = Cell proliferation inhibition (cytotoxicity) by MTT assay, HepG2; format: cell-based; settings: human, HepG2 cells, 48 hours after administration, average of three independent repeated experiments
Method: The human liver cancer cell line HepG2 was subcultured in a DMEM medium containing penicillin (final concentration: 100 U/mL), streptomycin (final concentration: 100 μg/mL) and 10% FBS under the same conditions as those in the subculture of HEK293A.
(§1) The cell proliferation inhibition ability of compounds was tested by MTT assay. HepG2 and HEK293 cells were inoculated in a 96-well plate at a density of 30%. After incubation for 18 h to allow the cells to adhere, the original culture medium was removed, a given concentration of the compound to be tested was added to each well, and an equal amount of DMSO was added to the control group. Three replicate wells were set up for each compound. 48 hours after administration, cell viability was tested by MTT assay. The blank group was the wells where no cells were added, and then its OD value was read at 490 nm with a microplate reader. Calculation formula for cell viability: cell viability (%)=(ODto be tested−ODblank)/(ODcontrol−ODblank)×100.

[3] = molecular target: T1, FXR (Homo sapiens, UniProt Q96RI1); assay: FXR antagonist screening by TR-FRET (LanthaScreen TR-FRET FXR co-activation assay kit); format: biochemical; settings: Table 1.1, FXR antagonistic activity; TR-FRET with CDCA; geometric means of at least two independent runs
T1 construct: 5 μL of 20 nM FXR-LBD Complete Coregulator buffer G; purchased ThermoFisher PV4833
T1 sequence (Q96RI1 262-486 limits assumed): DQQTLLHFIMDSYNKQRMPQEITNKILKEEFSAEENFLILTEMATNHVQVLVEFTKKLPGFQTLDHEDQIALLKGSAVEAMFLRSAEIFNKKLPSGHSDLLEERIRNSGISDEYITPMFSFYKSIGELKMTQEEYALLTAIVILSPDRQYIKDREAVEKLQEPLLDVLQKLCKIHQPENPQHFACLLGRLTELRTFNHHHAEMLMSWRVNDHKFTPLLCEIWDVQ
Method in brief: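 FXR-LBD (20 nM working solution) mixed with compound, CDCA (200 μM working solution) as agonist, Fluorescein-SRC2-2 and Tb-anti-GST antibody in Coregulator buffer G; 10 h at room temperature. Coactivator recruitment read by TR-FRET, triplicate wells.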

[4] = Cell proliferation inhibition (cytotoxicity) by MTT assay, HEK293A; format: cell-based; settings: human, HEK293A cells, 48 hours after administration, average of three independent repeated experiments
Method: The human embryonic kidney cell line HEK293A was subcultured in a medium containing penicillin (final concentration: 100 U/mL), streptomycin (final concentration: 100 μg/mL) and 10% FBS, in a humidified atmosphere of 95% air and 5% carbon dioxide at a constant temperature of 37° C. When the cells were 90% confluent, the old culture medium was discarded and the cells were washed twice with 2 mL of PBS. After the PBS was discarded, 2 mL of 0.25% trypsin-0.25% EDTA mixed digestion solution was added. When it was observed under a microscope that the cells became round, 2 mL of complete culture medium was added quickly to stop the digestion. The cell solution was pipetted gently to collect cells. The cells were centrifuged at 800 rpm, 4° C. for 5 min, the supernatant was discarded, the cells were resuspended in complete culture medium and cultured in bottles, and the medium was changed every other day.
as §1

| Compound | reduction of the increase in TG level of HepG2 cell induced by oleic acid and palmitate [1] | reduction of the increase in TC level of HepG2 cell induced by oleic acid and palmitate [1] | CC50 at 48 h [2] | melting point | IC50 [3] | CC50 at 48 h [4] | inhibitory effect on TC, dose dependence ([1]; HepG2, 20 μM, 40 μM, 80 μM) | inhibitory effect on TG, dose dependence ([1]; HepG2, 20 μM, 40 μM, 80 μM) |
| --- | --- | --- | --- | --- | --- | --- | --- | --- |
| CC(=O)C1=CC[C@H]2[C@@H]3CC=C4C[C@@H](O)CC[C@]4(C)[C@H]3CC[C@]12C [Centatin, 1-((3S, 8R, 9S, 10R, 135, 14S)-3-hydroxy-10,13-dimethyl-2,3,4,7,8,9,10,11,12,13,14,15-dodecahydro-1H-cyclopenta[a]phenanthren-17-yl)ethan-1-one] | significantly reduce | significantly reduce | – | – | – | – | – | – |
| Cc1c(C(=O)O)oc2ccc(S(=O)(=O)N(CCc3ccccc3)c3ccc(Cc4ccccc4)cc3)cc12 [Example F27-S11, 3-methyl-5-(N-(4-benzylphenyl)-N-phenethylsulfamoyl)benzofuran-2-carboxylic acid] | – | – | > 160 µM | 301 to 302 °C | 0.1 to 10 µM | > 160 µM | – | – |
| Cc1c(C(=O)O)oc2ccc(S(=O)(=O)N(CCc3ccccc3)c3ccc(Oc4ccccc4)cc3)cc12 [Example F27-S12, 3-methyl-5-(N-(4-phenoxyphenyl)-N-phenethylsulfamoyl)benzofuran-2-carboxylic acid] | – | – | > 160 µM | – | 0.1 to 10 µM | > 160 µM | – | – |
| Cc1c(C(=O)O)oc2ccc(S(=O)(=O)N(CCc3ccccc3)c3ccccc3N3CCN(C(=O)c4ccccc4)CC3)cc12 [Example F27-S96] | significantly reduce | significantly reduce | > 160 µM | 128 to 129 °C | 0.1 to 10 µM | > 160 µM | dose-dependent to some extent | dose-dependent to some extent |
| Cc1c(C(=O)O)oc2ccc(S(=O)(=O)N(CCc3ccccc3)Cc3ccccc3N3CCN(C(=O)N(C)C)CC3)cc12 [Example F27-S101, 3-methyl-5-(N-(2-(4-(dimethylcarbamoyl)piperazin-1-yl)benzyl)-N-phenethylsulfamoyl)benzofuran-2-carboxylic acid] | – | – | > 160 µM | 118 to 119 °C | 0.1 to 10 µM | > 160 µM | – | – |
| Cc1c(C(=O)O)oc2ccc(S(=O)(=O)N(CCc3ccccc3)Cc3ccccc3N3CCN(S(C)(=O)=O)CC3)cc12 [Example F27-S102, 3-methyl-5-(N-(2-(4-(methylsulfonyl)piperazin-1-yl)benzyl)-N-phenethylsulfamoyl)benzofuran-2-carboxylic acid] | – | – | – | 150 to 151 °C | 50 to 100 µM | – | – | – |
| Cc1c(C(=O)O)oc2ccc(S(=O)(=O)N(CCc3ccccc3)Cc3ccccc3N3CCN(C(=O)CC(C)(C)C)CC3)cc12 [Example F27-S103] | – | – | – | 190 to 191 °C | 10 to 50 µM | – | – | – |
| Cc1c(C(=O)O)oc2ccc(S(=O)(=O)N(CCc3ccccc3)Cc3ccccc3N3CCN(Cc4ccccc4)CC3)cc12 [Example F27-S104, 3-methyl-5-(N-(2-(4-benzylpiperazin-1-yl)benzyl)-N-phenethylsulfamoyl)benzofuran-2-carboxylic acid] | – | – | – | 154 to 155 °C | 50 to 100 µM | – | – | – |
| Cc1c(C(=O)O)oc2ccc(S(=O)(=O)N(CCc3ccccc3)Cc3ccccc3N3CCN(C(=O)c4ccccc4)CC3)cc12 [Example F27-S105, 3-methyl-5-(N-(2-(4-benzoylpiperazin-1-yl)benzyl)-N-phenethylsulfamoyl)benzofuran-2-carboxylic acid] | – | – | > 160 µM | 163 to 164 °C | 0.1 to 10 µM | > 160 µM | – | – |
| Cc1ccc(C)c(OCCCC(C)(C)C(=O)NCC(=O)c2ccc(O)cc2)c1 [SIPI-7623, 5-(2,5-dimethylphenoxy)-N-(2-(4-hydroxyphenyl)-2-oxoethyl)-2,2-dimethylpentanamide] | significantly reduce | significantly reduce | – | – | – | – | – | – |
| C/C=C1\C(=O)C[C@H]2[C@@H]3CCC4=CC(=O)CC[C@]4(C)[C@H]3CC[C@]12C [Z-GS] | significantly reduce | significantly reduce | – | – | – | – | – | – |

— US20240239775A1, “FXR REGULATOR, PREPARATION METHOD THEREFOR, PHARMACEUTICAL COMPOSITION THEREOF AND USE THEREOF” (QINGDAO RUIJI MEDICAL TECHNOLOGY CO., LTD., priority 2021, published 2024)
